Experimental data as given in patent US20200164005A1, “PHARMACEUTICAL COMPOSITIONS OF A BILE ACID DERIVATIVE AND MICROBIOME AND USES THEREOF” (Intercept Pharmaceuticals, Inc., priority 2017, published 2020).

Key:
[1] = system: gut microbiome gene families; assay: Gene differential abundance analysis of stool metagenome (HUMAnN2, Uniref50/Uniref90, transposases); type: in vivo, human
Description: The adaptors, human reads contamination, and low quality sequences were removed from the raw sequencing data using software kneaddata. Trimmomatic (Bolger et al., Bioinformatics 30, 2114 (2014)) was invoked by kneaddata for removing adaptor sequence, trimming low quality bases, and removing low quality reads. Bowtie (Langmead and Salzberg, Nat. Methods 9, 357 (2012)) was invoked by kneaddata for human reads detection. • Removing sequencing noise: For each sample, if the abundance of one species was smaller than 0.05% of the maximum abundance of all species in the sample, it was considered as noise, and the abundance of this species in the sample was set as 0. • Imputing missing value (i.e. Os): Because log 2 transformation was needed in further analysis, adjustment factor (e) was added to the abundance matrix, where e equals 50% of the minimum non-zero abundance value of all samples. • Removing low abundance species: A species was removed if the relative abundance was lower than 0.1% in >=95% of samples. 128 species was kept for further analysis.
(§1) HUMAnN2 (Abubucker et al., PLoS Comput. Biol. 8, e1002358 (2012)) was used to calculate gene and pathway abundance from metagenomic sequencing data. Uniref50 (UniProt® Consortium, Nucleic Acids Res. 43, D204 (2015)) was used for gene family definition. MetaCyc (Caspi et al., Nucleic Acids Res. 42, D459 (2014)) and KEGG (Kanehisa and Goto, Nucleic Acids Res. 28, 27 (2000); Kanehisa et al., Nucleic Acids Res. 44, D457 (2016)) were used for pathway analysis. • Gene family identification: Initially, 989251 gene families were identified from the dataset by HUMAnN2. Quantile normalization was implemented. For each sample, the RPK values were added up till 90% percentile of all genes (normalization factor, nf). RPK value of each gene in each sample was then divided by the nf of the sample, and multiplied with the mean of nf of all samples. 683270 uncharacterized genes were removed. Genes undetected in over 90% of samples (101994) were removed. 203987 genes were kept. Due to the large number of genes identified, 25% of the most varying genes were selected for further analysis. The most varying genes were defined by the coefficient variation (cv=sd/mean) of log 2 transformed value. • MetaCyc pathway identification: HUMAnN2 identified 567 MetaCyc pathways from the dataset. Quantile normalization was then performed. For each sample, the abundance values were added up till 90% percentile of all pathways (normalization factor, nf). Each pathway abundance in each sample was divided by the nf of the sample, and then multiplied with the mean of nf for all samples. The low abundance pathways (52), which were not detected on over 90% of all samples, were removed. 515 high quality MetaCyc pathways were kept for further analysis. • KEGG pathway identification: HUMAnN2 identified 160 KEGG pathways from the dataset. Quantile normalization was applied, and low abundance pathways were removed. 66 high quality KEGG pathways were kept for further analysis.
• Species differential abundance analysis: The time effect of OCA treatment was studied on three OCA dose groups separately using Friedman rank test. The dose effect of OCA treatment was studied on three time point separately, and Kruskal-Wallis test was used. • Gene differential abundance analysis: For each of the most varying genes, repeated-measure ANOVA was performed to study the time effect and OCA dose effect on gene abundance change. […]

[2] = system: MetaCyc pathways of the gut microbiome; assay: MetaCyc pathway differential abundance analysis of stool metagenome; type: in vivo, human
Description: as §1
gene abundance˜aov(day*OCAdose+error(subject ID)) • Pathway differential abundance analysis: For each of the identified pathways, repeated measure ANOVA was also performed to study the time effect and OCA dose effect on pathway abundance change.
pathway abundance˜aov(day*OCAdose+error(subject ID)) • FGF19 analysis: The GEE model was applied in order to study the relationship of FGF19 change with the microbiome, gene family, and the pathway abundance change over time. The R function geeglm from R package geepack was used for gee modeling. Both FGF19 level and species/gene/pathway relative abundance were log 2 transformed before applying GEE model. […]

[3] = repeated measure ANOVA, FDR<0.05

CC[C@H]1[C@@H](O)[C@@H]2[C@H](CC[C@]3(C)[C@@H]([C@H](C)CCC(=O)O)CC[C@@H]23)[C@@]2(C)CC[C@@H](O)C[C@@H]12 [OCA, 3α,7α-dihydroxy-6α-ethyl-5β-cholan-24-oic acid]
number of genes with significant time-dependent effects in response to OCA treatment ([1]; Uniref90 high stringency genomic analysis, eight bacterial species): 782 | representation of bacterial transposase genes ([1]; all three OCA doses): robust increase | glycosyl transferase genes in the presence of OCA ([1]; in vivo): significantly increased | OCA dose effect on gene abundance [1, 3]: No OCA dose effect or OCA dose×day interaction was observed | number of genes differentially abundant over time ([1]; repeated measure ANOVA, FDR<0.05 for time effect): 112 | pathways associated with nucleotide and amino acid biosynthesis ([2]; OCA treatment): enriched | number of MetaCyc pathways differentially abundant over time ([2]; out of 515, FDR<0.05 for time effect): 41 | number of MetaCyc pathways with significant time effects ([2]; repeated measure ANOVA, FDR<0.01, Example 7): 135 | OCA dose effect on MetaCyc pathway abundance [2, 3]: No OCA dose effect or OCA dose×day interaction was observed
